# Source: article PMC10518257 (Nature Cancer, 2023)
# Several values for one entry are separate records, joined by “and”; a condition that tells them apart may be missing. Identical values can stand only once. Like-named read-outs stand apart in the source and are kept apart here.
# Experiments:
# [1] = tested on: TT cells (RET C634W); experiment: Dose-response western blotting, EC50 for inhibition of protein phosphorylation; assay type: cell-based; conditions: Homo sapiens
# [2] = tested on: phosphorylation of RET^G810R, RET^G810S and RET^G810C in Ba/F3 cells; experiment: Western blotting of RET phosphorylation in Ba/F3 KIF5B–RET cells; assay type: cell-based; conditions: 1 h, western blot
# [3] = tested on: TT cells; experiment: Growth inhibition (alamarBlue, 96 h); assay type: cell-based, human; conditions: for raw viability signal (Source Data Fig. 3b-c): replicate sets
# [4] = tested on: LUAD-0002AS1 cells (KIF5B::RET); experiment: Dose-response western blotting, EC50 for inhibition of protein phosphorylation; assay type: cell-based; conditions: Homo sapiens, LUAD-0002AS1, 2 h, densitometry
# [5] = tested on: LC-2/ad cells; experiment: Growth inhibition (alamarBlue, 96 h); assay type: cell-based, human; conditions: for raw viability signal (Source Data Fig. 3b-c): LC-2/Ad, replicate sets
# [6] = tested on: Ba/F3 cells expressing KIF5B–RET^V804M; experiment: Growth inhibition assay in Ba/F3 cells (CellTiter-Glo, 72 h); assay type: cell-based; conditions: replicate sets
# [7] = Animal weight of tumor-bearing mice; conditions: for Animal Weight (g), Mean: Ba/F3-KIF5B::RET tumor-bearing mice (Ext. Data Fig 8h)
compound,measurement,setting,value
COc1ccc(CN2C3CC2CN(c2ccc(-c4cc(OCC(C)(C)O)cn5ncc(C#N)c45)cn2)C3)cn1 [Selpercatinib],EC50,"[1]; read-out: EC50 for Inhibition of Protein Phosphorylation (95% CI), AKT S473, 2 h, densitometry",1.9 nM
same,EC50,"[1]; read-out: EC50 for Inhibition of Protein Phosphorylation (95% CI), ERK1/2 T202/Y204, 2 h, densitometry",0.2 nM
same,EC50,"[1]; read-out: EC50 for Inhibition of Protein Phosphorylation (95% CI), MEK1/2 S217/S221, 2 h, densitometry",1.9 nM
same,EC50,"[1]; read-out: EC50 for Inhibition of Protein Phosphorylation (95% CI), P70 RSK T421/S424, 2 h, densitometry",1.7 nM
same,EC50,"[1]; read-out: EC50 for Inhibition of Protein Phosphorylation (95% CI), RET Y905, 2 h, densitometry",11.8 nM
same,EC50,"[1]; read-out: EC50 for Inhibition of Protein Phosphorylation (95% CI), S6RP S235/S236, 2 h, densitometry",0.6 nM
same,"block of phosphorylation of RET^G810R, RET^G810S or RET^G810C",[2],did not block
same,raw viability signal (Source Data Fig. 3b-c),[3]; 0.01 nM,21887.2 and 26414 and 26210.1 and 12272.3 and 26926.8
same,raw viability signal (Source Data Fig. 3b-c),[3]; 0.1 nM,22325.8 and 26539.8 and 30465.8 and 11158.3 and 24677.4
same,raw viability signal (Source Data Fig. 3b-c),[3]; 1 nM,20930 and 26176.3 and 29470 and 9614.13 and 22745.1
same,raw viability signal (Source Data Fig. 3b-c),[3]; 10 nM,15380.3 and 24600.1 and 21198.9 and 8183.69 and 18775.6
same,raw viability signal (Source Data Fig. 3b-c),[3]; 100 nM,9716.19 and 12690.1 and 13114.5 and 5163.1 and 15418.2
same,raw viability signal (Source Data Fig. 3b-c),[3]; 1000 nM,9549.4 and 11696.3 and 12426 and 4648.23 and 14095
same,raw viability signal (Source Data Fig. 3b-c),[3]; 10000 nM,9076.49 and 11812.8 and 14226.5 and 5846.11 and 12620.2
same,IC50,"[3]; Homo sapiens, 96 h, read-out: IC50 for Inhibition of Growth (95% CI)",23 nM
same,EC50,"[4]; read-out: EC50 for Inhibition of Protein Phosphorylation (95% CI), AKT S473",2 nM
same,EC50,"[4]; read-out: EC50 for Inhibition of Protein Phosphorylation (95% CI), ERK1/2 T202/Y204",1.5 nM
same,EC50,"[4]; read-out: EC50 for Inhibition of Protein Phosphorylation (95% CI), MEK1/2 S217/S221",1.3 nM
same,EC50,"[4]; read-out: EC50 for Inhibition of Protein Phosphorylation (95% CI), P70 RSK T421/S424",1.4 nM
same,EC50,"[4]; read-out: EC50 for Inhibition of Protein Phosphorylation (95% CI), RET Y905",0.4 nM
same,EC50,"[4]; read-out: EC50 for Inhibition of Protein Phosphorylation (95% CI), S6RP S235/S236",0.5 nM
same,IC50,"[5]; Homo sapiens, LC-2-ad, 96 h, read-out: IC50 for Inhibition of Growth (95% CI)",12 nM
same,raw viability signal (Source Data Fig. 3b-c),[5]; 0.01 nM,13499 and 23395.2
same,raw viability signal (Source Data Fig. 3b-c),[5]; 0.1 nM,14768.6 and 22354.3
same,raw viability signal (Source Data Fig. 3b-c),[5]; 1 nM,11358.1 and 22611.3
same,raw viability signal (Source Data Fig. 3b-c),[5]; 10 nM,5849.16 and 13692
same,raw viability signal (Source Data Fig. 3b-c),[5]; 100 nM,4303.48 and 6998.63
same,raw viability signal (Source Data Fig. 3b-c),[5]; 1000 nM,4639.86 and 5076.98
same,raw viability signal (Source Data Fig. 3b-c),[5]; 10000 nM,1761.41 and 1760.41
same,GI50,[6]; Ba/3-KIF5B-RET-V804M,36.4 nM and 32.9 nM
same,GI50,"[6]; Mus musculus, BaF3, Ba/3-KIF5B-RET-V804M",30.6 nM
same,"Animal Weight, Mean","[7]; Ba/F3-KIF5B::RET G810R (Fig 8f), Selpercatinib 10 mg/kg BID, day 1",27.18 g
same,"Animal Weight, Mean","[7]; Ba/F3-KIF5B::RET G810R (Fig 8f), Selpercatinib 10 mg/kg BID, day 4",26.90 g
same,"Animal Weight, Mean","[7]; Ba/F3-KIF5B::RET G810R (Fig 8f), Selpercatinib 10 mg/kg BID, day 8",26.00 g
same,"Animal Weight, Mean","[7]; Ba/F3-KIF5B::RET G810R (Fig 8f), Selpercatinib 10 mg/kg BID, day 11",26.60 g
same,"Animal Weight, Mean","[7]; Ba/F3-KIF5B::RET G810R (Fig 8f), Selpercatinib 10 mg/kg BID, day 15",26.48 g
same,"Animal Weight, Mean","[7]; Ba/F3-KIF5B::RET G810R (Fig 8g), Selpercatinib 30 mg/kg BID, day 1",25.8 g
same,"Animal Weight, Mean","[7]; Ba/F3-KIF5B::RET G810R (Fig 8g), Selpercatinib 30 mg/kg BID, day 4",26.9 g
same,"Animal Weight, Mean","[7]; Ba/F3-KIF5B::RET G810R (Fig 8g), Selpercatinib 30 mg/kg BID, day 8",27.0 g
same,"Animal Weight, Mean","[7]; Ba/F3-KIF5B::RET G810R (Fig 8g), Selpercatinib 30 mg/kg BID, day 11",26.8 g
same,"Animal Weight, Mean","[7]; Ba/F3-KIF5B::RET G810R (Fig 8g), Selpercatinib 30 mg/kg BID, day 15",26.8 g
same,"Animal Weight (g), Mean","[7]; 3 mg/kg BID, day 1",28.0 g
same,"Animal Weight (g), Mean","[7]; 3 mg/kg BID, day 4",28.1 g
same,"Animal Weight (g), Mean","[7]; 3 mg/kg BID, day 8",28.6 g
same,"Animal Weight (g), Mean","[7]; 3 mg/kg BID, day 11",28.6 g
same,"Animal Weight (g), Mean","[7]; 3 mg/kg BID, day 15",28.4 g
same,"Animal Weight (g), Mean","[7]; 10 mg/kg BID, day 1",27.7 g
same,"Animal Weight (g), Mean","[7]; 10 mg/kg BID, day 4",27.7 g
same,"Animal Weight (g), Mean","[7]; 10 mg/kg BID, day 8",28.2 g
same,"Animal Weight (g), Mean","[7]; 10 mg/kg BID, day 11",28.7 g
same,"Animal Weight (g), Mean","[7]; 10 mg/kg BID, day 15",28.6 g
same,"Animal Weight (g), Mean","[7]; 30 mg/kg BID, day 1",28.1 g
same,"Animal Weight (g), Mean","[7]; 30 mg/kg BID, day 4",27.9 g
same,"Animal Weight (g), Mean","[7]; 30 mg/kg BID, day 8",29.0 g
same,"Animal Weight (g), Mean","[7]; 30 mg/kg BID, day 11",29.6 g
same,"Animal Weight (g), Mean","[7]; 30 mg/kg BID, day 15",29.2 g
same,"Animal Weight (g), Mean","[7]; 100 mg/kg BID, day 1",26.8 g
same,"Animal Weight (g), Mean","[7]; 100 mg/kg BID, day 4",26.1 g
same,"Animal Weight (g), Mean","[7]; 100 mg/kg BID, day 8",23.3 g
same,Animal Weight,"[7]; LUAD-0077AS1 PDX, Selpercatinib 10 mg/kg BID, treatment day 0, individual animals",24 g and 25 g and 21 g and 23 g (2×)
